Results: patent US20180237441A1, “Chemical Compounds” (GlaxoSmithKline Intellectual Property (No.2) Limited, priority 2015, published 2018)
pIC50: −log10 of the molar value.

Biological target: T1, PERK (Homo sapiens, UniProt Q9NZJ5)
T1 sequence (Q9NZJ5 30-1116): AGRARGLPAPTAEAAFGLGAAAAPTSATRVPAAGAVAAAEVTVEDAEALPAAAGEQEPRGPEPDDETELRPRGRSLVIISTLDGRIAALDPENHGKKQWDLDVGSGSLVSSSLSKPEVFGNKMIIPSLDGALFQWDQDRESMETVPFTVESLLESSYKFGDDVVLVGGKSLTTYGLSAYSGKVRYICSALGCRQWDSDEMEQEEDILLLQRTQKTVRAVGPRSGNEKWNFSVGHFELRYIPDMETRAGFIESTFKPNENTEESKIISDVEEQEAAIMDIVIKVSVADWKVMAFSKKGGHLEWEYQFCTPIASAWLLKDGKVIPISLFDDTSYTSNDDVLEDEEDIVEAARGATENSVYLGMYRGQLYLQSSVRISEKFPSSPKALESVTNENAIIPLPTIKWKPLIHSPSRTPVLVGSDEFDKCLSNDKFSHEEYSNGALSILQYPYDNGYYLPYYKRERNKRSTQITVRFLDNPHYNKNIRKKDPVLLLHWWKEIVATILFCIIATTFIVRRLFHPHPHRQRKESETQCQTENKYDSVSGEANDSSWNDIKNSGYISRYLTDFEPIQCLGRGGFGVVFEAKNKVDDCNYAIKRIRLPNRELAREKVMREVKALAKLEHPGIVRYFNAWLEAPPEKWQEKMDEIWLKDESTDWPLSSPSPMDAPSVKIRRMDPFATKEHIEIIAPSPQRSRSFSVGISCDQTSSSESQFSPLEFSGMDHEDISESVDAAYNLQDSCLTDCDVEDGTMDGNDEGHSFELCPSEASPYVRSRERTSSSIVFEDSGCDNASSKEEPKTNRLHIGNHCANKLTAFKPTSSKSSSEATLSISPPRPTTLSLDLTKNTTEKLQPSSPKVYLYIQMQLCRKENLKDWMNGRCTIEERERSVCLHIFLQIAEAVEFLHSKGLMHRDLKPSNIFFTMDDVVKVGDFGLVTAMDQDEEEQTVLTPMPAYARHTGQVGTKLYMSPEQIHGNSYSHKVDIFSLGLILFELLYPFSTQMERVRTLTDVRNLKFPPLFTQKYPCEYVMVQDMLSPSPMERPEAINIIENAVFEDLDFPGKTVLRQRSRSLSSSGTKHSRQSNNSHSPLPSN
Test: PERK enzyme assay (HTRF)
Type: biochemical
Conditions: 500 μM ATP; at least one experimental run; read-out: PERK Enzyme (500 μM ATP) IC50
Experimental: Compounds of the invention were assayed for PERK enzyme inhibitory activity with modifications to previously reported conditions (Axten et al. J. Med. Chem., 2012, 55, 7193-7207). Briefly, various concentrations of compounds (maximum 1% DMSO) were dispensed into 384-well plates containing GST-PERK enzyme. After 30-60 minutes of compound pre-incubation, ATP and biotin-eIF2α were added and after 60 minutes the reaction was quenched. After 2 hrs, a fluorescence plate reader was used to measure inhibition and IC50s were calculated.
Enzyme Assay Protocol for PKR-Like Endoplasmic Reticulum Kinase (PERK)—HTRF —% Inhibition
Assay Buffer contains HEPES (pH7.5) 10 mM, CHAPS 2 mM, MgCl2 5 mM and DTT 1 mM in water
Detection Buffer contains HEPES (pH7.5) 10 mM and CHAPS 2 mM in water Assay Plate Preparation:
1. Enzyme Preparation: • 4× Enzyme solution was prepared immediately prior to adding to compound plates. • 3 nM of GST-PERK in Assay buffer. Final [PERK] in 10 μl assay volume=0.75 nM
2. Substrate Preparation: • 4× Substrate solution was prepared immediately prior to adding to compound plates. • 4× Substrate solution in assay buffer 2000 μM ATP and 160 nM Biotin-eIF2α • Final [ATP] in 10 μl assay volume=500 μM • Final [biotin-eIF2a] in 10 μl assay volume=40 nM.
3. Quench/Detection Solution: • 16 nM eIF2 Phospho-Antibody • 16 nM Eu anti-Rabbit IgG • 160 nM Streptavidin-APC • 60 mM EDTA • Final concentration in 10 μL assay volume: 4 nM eIF2 Phospho-Antibody, 4 nM Eu anti-Rabbit IgG 40 nM Streptavidin-APC
The activity of compounds in the PERK enzyme assay was determined at PERK Enzyme (500 μM ATP) IC50 (nM).

pIC50	SMILES
8.62	CN1C(=O)N(c2ccc(-c3cn(C)c4ncnc(N)c34)c(F)c2)CC1c1ccc(F)c(F)c1 (single isomer, unassigned) [Example 115, 1-(4-(4-amino-7-methyl-7H-pyrrolo[2,3-d]pyrimidin-5-yl)-3-fluorophenyl)-4-(3,4-difluorophenyl)-3-methylimidazolidin-2-one]
8.21	CN1C(=O)N(c2ccc(-c3cn(C)c4ncnc(N)c34)c(Cl)c2)CC1c1cc(F)cc(F)c1 (single isomer, unassigned) [Example 127, 1-(4-(4-amino-7-methyl-7H-pyrrolo[2,3-d]pyrimidin-5-yl)-3-chlorophenyl)-4-(3,5-difluorophenyl)-3-methylimidazolidin-2-one]
7.75	CN1C(=O)N(c2ccc(-c3cn(C4CC4)c4ncnc(N)c34)c(F)c2)CC1c1ccc(F)cc1F (single isomer, unassigned) [Example 137, 1-(4-(4-amino-7-cyclopropyl-7H-pyrrolo[2,3-d]pyrimidin-5-yl)-3-fluorophenyl)-4-(2,4-difluorophenyl)-3-methylimidazolidin-2-one]

Same assay, conditions: PERK Enzyme (500 μM ATP) IC50; at least one experimental run; read-out: PERK Activity

SMILES	pIC50
Cc1nc(N)c2c(-c3ccc(N4CC(c5cncc(F)c5)N(C)C4=O)cc3F)cn(C)c2n1 (single isomer, unassigned) [Example 111, 1-(4-(4-amino-2,7-dimethyl-7H-pyrrolo[2,3-d]pyrimidin-5-yl)-3-fluorophenyl)-4-(5-fluoropyridin-3-yl)-3-methylimidazolidin-2-one]	6.00 to 7.00
CN1C(=O)N(c2ccc(-c3cn(C4CC4)c4ncnc(N)c34)c(F)c2)CC1c1ccc(F)c(F)c1 (single isomer, unassigned) [Example 117, 1-(4-(4-amino-7-cyclopropyl-7H-pyrrolo[2,3-d]pyrimidin-5-yl)-3-fluorophenyl)-4-(3,4-difluorophenyl)-3-methylimidazolidin-2-one]	6.00 to 7.00
CCN1C(=O)N(c2ccc(-c3cn(C4CC4)c4ncnc(N)c34)c(F)c2)CC1c1cc(F)ccc1F (single isomer, unassigned) [Example 123, 1-(4-(4-amino-7-cyclopropyl-7H-pyrrolo[2,3-d]pyrimidin-5-yl)-3-fluorophenyl)-4-(2,5-difluorophenyl)-3-ethylimidazolidin-2-one]	6.00 to 7.00
CN1C(=O)N(c2ccc(-c3cn(C)c4ncnc(N)c34)c(Cl)c2)CC1c1cc(F)cc(F)c1 (single isomer, unassigned) [Example 128, 1-(4-(4-amino-7-methyl-7H-pyrrolo[2,3-d]pyrimidin-5-yl)-3-chlorophenyl)-4-(3,5-difluorophenyl)-3-methylimidazolidin-2-one]	> 7.00
CN1C(=O)N(c2ccc(-c3cn(C4CC4)c4ncnc(N)c34)c(Cl)c2)CC1c1cc(F)cc(F)c1 (single isomer, unassigned) [Example 129, 1-(4-(4-amino-7-cyclopropyl-7H-pyrrolo[2,3-d]pyrimidin-5-yl)-3-chlorophenyl)-4-(3,5-difluorophenyl)-3-methylimidazolidin-2-one]	> 7.00
CN1C(=O)N(c2ccc(-c3cn(C4CC4)c4ncnc(N)c34)c(Cl)c2)CC1c1cc(F)cc(F)c1 (single isomer, unassigned) [Example 130, 1-(4-(4-amino-7-cyclopropyl-7H-pyrrolo[2,3-d]pyrimidin-5-yl)-3-chlorophenyl)-4-(3,5-difluorophenyl)-3-methylimidazolidin-2-one]	> 7.00
CN1C(=O)N(c2ccc(-c3cn(C)c4ncnc(N)c34)c(F)c2)CC1c1ccc(F)c(Cl)c1 (single isomer, unassigned) [Example 133, 1-(4-(4-amino-7-methyl-7H-pyrrolo[2,3-d]pyrimidin-5-yl)-3-fluorophenyl)-4-(3-chloro-4-fluorophenyl)-3-methylimidazolidin-2-one]	> 7.00
CN1C(=O)N(c2ccc(-c3cn(C4CC4)c4ncnc(N)c34)c(F)c2)CC1c1ccc(F)c(Cl)c1 (single isomer, unassigned) [Example 134, 1-(4-(4-amino-7-cyclopropyl-7H-pyrrolo[2,3-d]pyrimidin-5-yl)-3-fluorophenyl)-4-(3-chloro-4-fluorophenyl)-3-methylimidazolidin-2-one]	> 7.00
Cc1nc(N)c2c(-c3ccc(N4CC(c5ccc(Cl)nc5)N(C)C4=O)cc3F)cn(C)c2n1 (single isomer, unassigned) [Example 136, 1-(4-(4-amino-2,7-dimethyl-7H-pyrrolo[2,3-d]pyrimidin-5-yl)-3-fluorophenyl)-4-(6-chloropyridin-3-yl)-3-methylimidazolidin-2-one]	6.00 to 7.00

Further lines, results first:

pIC50	SMILES
> 7.00	COc1cccc(C2CN(c3ccc(-c4cn(C)c5ncnc(N)c45)c(F)c3)C(=O)N2C)c1 (single isomer, unassigned) [Example 103, 1-(4-(4-amino-7-methyl-7H-pyrrolo[2,3-d]pyrimidin-5-yl)-3-fluorophenyl)-4-(3-methoxyphenyl)-3-methylimidazolidin-2-one]
> 7.00	Cc1nc(N)c2c(-c3ccc(N4CC(c5cc(F)cc(F)c5)N(C)C4=O)cc3F)cn(C)c2n1 (single isomer, unassigned) [Example 104, 1-(4-(4-amino-2,7-dimethyl-7H-pyrrolo[2,3-d]pyrimidin-5-yl)-3-fluorophenyl)-4-(3,5-difluorophenyl)-3-methylimidazolidin-2-one]
> 7.00	Cc1nc(C2CN(c3ccc(-c4cn(C)c5ncnc(N)c45)c(F)c3)C(=O)N2C)ccc1F (single isomer, unassigned) [Example 113, 1-(4-(4-amino-7-methyl-7H-pyrrolo[2,3-d]pyrimidin-5-yl)-3-fluorophenyl)-4-(5-fluoro-6-methylpyridin-2-yl)-3-methylimidazolidin-2-one]
> 7.00	CN1C(=O)N(c2ccc(-c3cn(C)c4ncnc(N)c34)c(F)c2)CC1c1ccc(F)c(F)c1 (single isomer, unassigned) [Example 115, 1-(4-(4-amino-7-methyl-7H-pyrrolo[2,3-d]pyrimidin-5-yl)-3-fluorophenyl)-4-(3,4-difluorophenyl)-3-methylimidazolidin-2-one]
> 7.00	CN1C(=O)N(c2ccc(-c3cn(C4CC4)c4ncnc(N)c34)c(F)c2)CC1c1ccc(F)c(F)c1 (single isomer, unassigned) [Example 116, 1-(4-(4-amino-7-cyclopropyl-7H-pyrrolo[2,3-d]pyrimidin-5-yl)-3-fluorophenyl)-4-(3,4-difluorophenyl)-3-methylimidazolidin-2-one]
> 7.00	CCN1C(=O)N(c2ccc(-c3cn(C4CC4)c4ncnc(N)c34)c(F)c2)CC1c1cc(F)ccc1F (single isomer, unassigned) [Example 124, 1-(4-(4-amino-7-cyclopropyl-7H-pyrrolo[2,3-d]pyrimidin-5-yl)-3-fluorophenyl)-4-(2,5-difluorophenyl)-3-ethylimidazolidin-2-one]
> 7.00	CN1C(=O)N(c2ccc(-c3cn(C4CC4)c4ncnc(N)c34)c(F)c2)CC1c1cccc(F)c1 (single isomer, unassigned) [Example 125, 1-(4-(4-amino-7-cyclopropyl-7H-pyrrolo[2,3-d]pyrimidin-5-yl)-3-fluorophenyl)-4-(3-fluorophenyl)-3-methylimidazolidin-2-one]
> 7.00	CN1C(=O)N(c2ccc(-c3cn(C4CC4)c4ncnc(N)c34)c(F)c2)CC1c1cccc(F)c1 (single isomer, unassigned) [Example 126, 1-(4-(4-amino-7-cyclopropyl-7H-pyrrolo[2,3-d]pyrimidin-5-yl)-3-fluorophenyl)-4-(3-fluorophenyl)-3-methylimidazolidin-2-one]
> 7.00	CN1C(=O)N(c2ccc(-c3cn(C)c4ncnc(N)c34)c(Cl)c2)CC1c1cc(F)cc(F)c1 (single isomer, unassigned) [Example 127, 1-(4-(4-amino-7-methyl-7H-pyrrolo[2,3-d]pyrimidin-5-yl)-3-chlorophenyl)-4-(3,5-difluorophenyl)-3-methylimidazolidin-2-one]
> 7.00	CN1C(=O)N(c2ccc(-c3cn(C4CC4)c4ncnc(N)c34)c(F)c2)CC1c1ccc(F)cc1F (single isomer, unassigned) [Example 137, 1-(4-(4-amino-7-cyclopropyl-7H-pyrrolo[2,3-d]pyrimidin-5-yl)-3-fluorophenyl)-4-(2,4-difluorophenyl)-3-methylimidazolidin-2-one]
